PubChem BioAssay (NCI)
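Test compounds were applied to cells in 96-well plates for 48 hours at 5 doses. TGI marks complete inhibition of growth.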

Assays:
Experiment in all cases: NCI tumour cell line growth inhibition, 48 h
786-0 renal = tested on: 786-0 renal
A498 renal = tested on: A498 renal
A549 NSCLC = tested on: A549 NSCLC
ACHN renal = tested on: ACHN renal
BT-549 breast = tested on: BT-549 breast
CCRF-CEM leukemia = tested on: CCRF-CEM leukemia
COLO 205 colon = tested on: COLO 205 colon
DU-145 prostate = tested on: DU-145 prostate
EKVX NSCLC = tested on: EKVX NSCLC
HCT-116 colon = tested on: HCT-116 colon
HCT-15 colon = tested on: HCT-15 colon
HL-60(TB) leukemia = tested on: HL-60(TB) leukemia
HOP-62 NSCLC = tested on: HOP-62 NSCLC
HOP-92 NSCLC = tested on: HOP-92 NSCLC
HS 578T breast = tested on: HS 578T breast
HT29 colon = tested on: HT29 colon
IGROV1 ovarian = tested on: IGROV1 ovarian
K-562 leukemia = tested on: K-562 leukemia
KM12 colon = tested on: KM12 colon
LOX IMVI melanoma = tested on: LOX IMVI melanoma
M14 melanoma = tested on: M14 melanoma
MALME-3M melanoma = tested on: MALME-3M melanoma
MCF7 breast = tested on: MCF7 breast
MDA-MB-231 breast = tested on: MDA-MB-231 breast
MDA-MB-435 = tested on: MDA-MB-435
MDA-N = tested on: MDA-N
MOLT-4 leukemia = tested on: MOLT-4 leukemia
NCI-H226 lung = tested on: NCI-H226 lung
NCI-H23 lung = tested on: NCI-H23 lung
NCI-H460 lung = tested on: NCI-H460 lung
NCI/ADR-RES ovarian = tested on: NCI/ADR-RES ovarian
OVCAR-3 ovarian = tested on: OVCAR-3 ovarian
OVCAR-4 ovarian = tested on: OVCAR-4 ovarian
OVCAR-5 ovarian = tested on: OVCAR-5 ovarian
OVCAR-8 ovarian = tested on: OVCAR-8 ovarian
PC-3 prostate = tested on: PC-3 prostate
RPMI-8226 leukemia = tested on: RPMI-8226 leukemia
RXF 393 renal = tested on: RXF 393 renal
SF-268 CNS = tested on: SF-268 CNS
SF-295 CNS = tested on: SF-295 CNS
SF-539 CNS = tested on: SF-539 CNS
SK-MEL-2 melanoma = tested on: SK-MEL-2 melanoma
SK-MEL-28 melanoma = tested on: SK-MEL-28 melanoma
SK-MEL-5 melanoma = tested on: SK-MEL-5 melanoma
SK-OV-3 ovarian = tested on: SK-OV-3 ovarian
SN12C renal = tested on: SN12C renal
SNB-19 CNS = tested on: SNB-19 CNS
SNB-75 CNS = tested on: SNB-75 CNS
SR leukemia = tested on: SR leukemia
SW-620 colon = tested on: SW-620 colon
T-47D breast = tested on: T-47D breast
TK-10 renal = tested on: TK-10 renal
U251 CNS = tested on: U251 CNS
UACC-257 melanoma = tested on: UACC-257 melanoma
UACC-62 melanoma = tested on: UACC-62 melanoma
UO-31 renal = tested on: UO-31 renal

Measured: TGI

CC(C(=O)N1c2ccccc2Sc2ccccc21)N1c2ccccc2Sc2ccccc21 (stereo unspecified)
> 100 µM: 786-0 renal | A498 renal | A549 NSCLC | ACHN renal | BT-549 breast | CCRF-CEM leukemia | COLO 205 colon | DU-145 prostate | EKVX NSCLC | HCT-116 colon | HCT-15 colon | HL-60(TB) leukemia | HOP-62 NSCLC | HOP-92 NSCLC | HS 578T breast | HT29 colon | IGROV1 ovarian | K-562 leukemia | KM12 colon | LOX IMVI melanoma | M14 melanoma | MALME-3M melanoma | MCF7 breast | MDA-MB-231 breast | MDA-MB-435 | MDA-N | MOLT-4 leukemia | NCI-H226 lung | NCI-H23 lung | NCI-H460 lung | NCI/ADR-RES ovarian | OVCAR-3 ovarian | OVCAR-4 ovarian | OVCAR-5 ovarian | OVCAR-8 ovarian | PC-3 prostate | RPMI-8226 leukemia | RXF 393 renal | SF-268 CNS | SF-295 CNS | SF-539 CNS | SK-MEL-2 melanoma | SK-MEL-28 melanoma | SK-MEL-5 melanoma | SK-OV-3 ovarian | SN12C renal | SNB-19 CNS | SNB-75 CNS | SR leukemia | SW-620 colon | T-47D breast | TK-10 renal | U251 CNS | UACC-257 melanoma | UACC-62 melanoma | UO-31 renal
